In patent publication US4810800A, “Novel imidazole dopamine beta hydroxylase inhibitors” (Merrell Dow Pharmaceuticals Inc., priority 1988, dated 1989):

Key:
[1] = tested on: spontaneously hypertensive rats; experiment: antihypertensive effect: blood pressure monitored continuously in spontaneously hypertensive rats after ip dosing; assay type: in vivo; conditions: 50 mg/kg, 6 hours post dose in SHR, Mean Difference ± Standard Deviation
Description: The ability of the compounds of this invention to lower blood pressure can be determined in vivo using spontaneously hypertensive rats (SHR'S) according to standard and well known procedures. The test compound is administered intraperitoneally (ip) to rats and the blood pressure monitored continuously. Snce DBH is a major enzyme in the synthetic pathway of the catecholamines, it would be expected that the presence of an inhibitor would act to decrease the amount of catecholamines produced, and thereby have an antihypertensive effect. The results of the testing for this antihypertensive effect are shown in Table I (MBP is mean blood pressure).
In Vivo at 50 mg/kg, IP, 6 Hours Post Dose in SHR's*

[2] = biological target: T1, dopamine beta-hydroxylase (Bos taurus, UniProt P15101); experiment: in vitro DBH inhibition (conversion of tyramine to octopamine; oxygen uptake by polarographic electrode); assay type: biochemical; conditions: pH of 5, 37° C. preferably
T1 sequence (P15101 1-610): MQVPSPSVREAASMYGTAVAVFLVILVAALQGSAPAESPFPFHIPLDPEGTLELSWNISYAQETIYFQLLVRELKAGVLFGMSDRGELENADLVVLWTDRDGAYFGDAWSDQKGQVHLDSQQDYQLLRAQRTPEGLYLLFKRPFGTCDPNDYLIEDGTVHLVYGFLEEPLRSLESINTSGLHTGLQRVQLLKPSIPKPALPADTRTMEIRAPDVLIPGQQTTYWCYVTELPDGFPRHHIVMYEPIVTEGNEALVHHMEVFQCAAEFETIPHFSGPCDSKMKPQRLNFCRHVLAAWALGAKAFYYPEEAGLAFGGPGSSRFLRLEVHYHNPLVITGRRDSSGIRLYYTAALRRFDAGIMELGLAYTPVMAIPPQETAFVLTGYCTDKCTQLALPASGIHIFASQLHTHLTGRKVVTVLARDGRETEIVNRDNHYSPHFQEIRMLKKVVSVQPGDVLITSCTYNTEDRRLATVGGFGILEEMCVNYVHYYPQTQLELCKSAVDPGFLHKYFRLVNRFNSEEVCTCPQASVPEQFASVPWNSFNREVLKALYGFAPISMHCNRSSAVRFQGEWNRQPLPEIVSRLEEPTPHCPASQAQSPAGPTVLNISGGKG
Description: The DBH inhibitory properties of the compounds of this invention can readily be determined in vitro by standard and well known procedures for assaying conversion of tyramine to octopamine in the presence of dopamine beta-hydroxylase. Enzymatic oxygenation by DBH is determined in aqueous solution in the presence of molecular oxygen, an electron donor such as ascorbate, and the necessary cofactors for the enzyme at pH of 5 and a temperature of 20°-40° C., preferably 37° C. The test compound is added at the desired concentration, and the system is incubated. Activity is measured by measuring the oxygen uptake using a polarographic electrode and an oxygen monitor by the method of S. May, et al., J. Biol. Chem. 256, 2258 (1981). Inhibition is given in molar concentration of compound at which DBH activity was halved (IC50) when the test compounds were tested according to the above described procedure. The IC50 (expressed in micromolar units) data of some of the compounds of this invention are expressed in Table I.

| IC50 [2] | Compound | Max Change MBP (mean blood pressure) [1] |
| --- | --- | --- |
| 4.7 µM | NC(=S)c1nccn1Cc1cccs1 [Compound 2, 1-(2-Thienylmethyl)-2-thiocarbamyl-1H-imidazole] | -25 ± 12 mmHg |
| 12.8 µM | NCc1nccn1Cc1cccs1 [Compound 1, 2-Aminomethyl-1-(2-thienylmethyl)-1H-imidazole] | -41 ± 14 mmHg |
